The target of this test is human GPR52 (Homo sapiens, UniProt Q9Y2T5). The test can be described thus: GPR52 Agonist Functional cAMP Assay.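 As to all read-outs here: HEKf cells transduced with GPR52 BacMam for 24 h, 2000 per well, exposed to compounds 30 min at 37° C with 0.5 mM IBMX, cAMP read by HTRF.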 The note with it: for EC50: pEC50 average, HEKf cells infected with human GPR52 BacMam virus, cAMP HTRF, 30 min at 37° C. For orientation: Time-resolved FRET reads energy transfer from a long-lived donor to a nearby acceptor.
Chain of human GPR52 (Q9Y2T5 whole entry): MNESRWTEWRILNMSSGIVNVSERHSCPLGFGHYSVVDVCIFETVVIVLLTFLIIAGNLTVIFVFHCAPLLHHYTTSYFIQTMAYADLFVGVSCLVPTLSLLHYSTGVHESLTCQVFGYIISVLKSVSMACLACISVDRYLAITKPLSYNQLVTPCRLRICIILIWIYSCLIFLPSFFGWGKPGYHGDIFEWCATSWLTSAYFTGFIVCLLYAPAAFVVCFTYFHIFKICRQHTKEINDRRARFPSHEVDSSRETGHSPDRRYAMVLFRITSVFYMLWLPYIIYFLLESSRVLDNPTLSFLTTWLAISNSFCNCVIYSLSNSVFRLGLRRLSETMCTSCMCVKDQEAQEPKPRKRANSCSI
[1] abbreviates: maximal response normalised to DMSO (0%) and maximal compound 7m (J. Med. Chem., 2014, 57, 5226) response (100%).

Read-outs that look alike come from different tables or passages of the source.

Consider 30 molecules from US20230002374A1, “GPR52 MODULATOR COMPOUNDS” (Heptares Therapeutics Limited, priority 2019, published 2023).

Experimental: Following BacMam infection, cells were pelleted by centrifugation (335 g, 5 min), resuspended in cell freezing medium (Sigma) and frozen at −150° C. until required. On experiment day, 25 nL GPR52 compound dilutions, prepared in DMSO, were stamped onto proxiplates (PerkinElmer) by a LabCyte ECHO acoustic dispenser. Frozen cells were thawed and resuspended in assay stimulation buffer (Cisbio) containing 0.5 mM 3-iso-butyl-1-methylxanthine (IBMX, Sigma) to achieve a density of 2000 cells per well. 10 μl cells were added to assay plates using a Multidrop Combi Reagent Dispenser (ThermoFisher) before centrifugation (335 g, 1 min). Cells were incubated with compounds at 37° C. for 30 min prior to addition of cAMP detection reagents (HiRange cAMP kit, Cisbio) which were prepared according to the manufacturer's instructions. Plates were shaken for 1 h at room temperature before reading on a PHERAstar FS plate reader (BMG Labtech) using standard HTRF settings.

Consider `Cc1nn(-c2ccnc(C(O)c3cc(F)cc(C(F)(F)F)c3)c2)c2c1C(=O)NCC2` (single isomer, unassigned) [117 Isomer 1, 1-(2-((3-fluoro-5-(trifluoromethyl)phenyl)(hydroxy)methyl)pyridin-4-yl)-3-methyl-1,5,6,7-tetrahydro-4H-pyrazolo[4,3-c]pyridin-4-one], for which a half-maximal effect (EC50) was put at 251 nM. The Emax (usually the size of the effect at its maximum, as opposed to the concentration needed) under setting [1] worked out at 83%.
Regarding `Cc1nn(-c2cc(C(O)c3cc(F)cc(C(F)(F)F)c3)ccn2)c2c1C(=O)NCC2` (single isomer, unassigned) [118 Isomer 1, 1-(4-((3-fluoro-5-(trifluoromethyl)phenyl)(hydroxy)methyl)pyridin-2-yl)-3-methyl-1,5,6,7-tetrahydro-4H-pyrazolo[4,3-c]pyridin-4-one], the concentration giving a half-maximal response (EC50) (commonly the midpoint of the concentration-response curve) was 126 nM. The molecule also yielded an Emax under setting [1] of 94%.
In the same order, the values of `CC1Cc2c(cnn2-c2ccnc(Cc3cc(F)cc(C(F)(F)F)c3)c2)C(=O)N1` (single isomer, unassigned) [Example 40 Isomer 1, 1-(2-(3-fluoro-5-(trifluoromethyl)benzyl)pyridin-4-yl)-6-methyl-1,5,6,7-tetrahydro-4H-pyrazolo[4,3-c]pyridin-4-one] are 31.6 nM and 95%.
Regarding `Cc1cc(Cc2ccnc(-n3ncc4c3CCNC4=O)c2)cnc1F` [Example 6, 1-(4-((6-fluoro-5-methylpyridin-3-yl)methyl)pyridin-2-yl)-1,5,6,7-tetrahydro-4H-pyrazolo[4,3-c]pyridin-4-one], the EC50 is 501 nM. Also, the Emax under setting [1] was 82%.
`Cc1cc(Cc2ccnc(-n3ncc4c3CCN(C)C4=O)c2)cnc1F` [Example 7, 1-(4-((6-fluoro-5-methylpyridin-3-yl)methyl)pyridin-2-yl)-5-methyl-1,5,6,7-tetrahydro-4H-pyrazolo[4,3-c]pyridin-4-one] gave an EC50 of 200 nM. Besides, under setting [1], the Emax was 83%.
As for `O=C1NCCc2nn(-c3cc(Cc4cccc(C(F)(F)F)c4)ccn3)cc21` [Example 8, 2-(4-(3-(trifluoromethyl)benzyl)pyridin-2-yl)-2,5,6,7-tetrahydro-4H-pyrazolo[4,3-c]pyridin-4-one], the EC50 is 316 nM. Under setting [1], the Emax was determined as 75%.
`O=C1NCCCc2c1cnn2-c1cc(Cc2cc(F)cc(C(F)(F)F)c2)ccn1` [Example 10, 1-(4-(3-fluoro-5-(trifluoromethyl)benzyl)pyridin-2-yl)-5,6,7,8-tetrahydropyrazolo[4,3-c]azepin-4(1H)-one] showed a half-maximal effective concentration (EC50) of 7.94 nM. Besides, under setting [1], the maximum response (Emax) was 90%.
`O=C1NCCCc2c1cnn2-c1cc(Cc2cccc(C(F)(F)F)c2)ccn1` [Example 11, 1-(4-(3-(trifluoromethyl)benzyl)pyridin-2-yl)-5,6,7,8-tetrahydropyrazolo[4,3-c]azepin-4(1H)-one] showed an EC50 of 63.1 nM. Also, the Emax under setting [1] was 86%.
Take `O=C1NCCOc2c1cnn2-c1cc(Cc2cccc(C(F)(F)F)c2)ccn1` [Example 13, 1-(4-(3-(trifluoromethyl)benzyl)pyridin-2-yl)-6,7-dihydro-1H-pyrazolo[4,3-f][1,4]oxazepin-4(5H)-one]: the EC50 is 25.1 nM. The molecule also came in with an Emax under setting [1] of 89%.
The molecule `O=C1NCCOc2c1cnn2-c1cc(Cc2cc(F)cc(C(F)(F)F)c2)ccn1` [Example 14, 1-(4-(3-fluoro-5-(trifluoromethyl)benzyl)pyridin-2-yl)-6,7-dihydro-1H-pyrazolo[4,3-f][1,4]oxazepin-4(5H)-one] gave an EC50 of 10 nM. Under setting [1], this molecule yielded a maximal response (Emax) of 103%.
In the case of `O=C1NCCc2c1cnn2-c1cc(Cc2cc(F)cc(C(F)(F)F)c2)cnn1` [Example 15, 1-(5-(3-fluoro-5-(trifluoromethyl)benzyl)pyridazin-3-yl)-1,5,6,7-tetrahydro-4H-pyrazolo[4,3-c]pyridin-4-one], the EC50 is 126 nM. This molecule also showed an Emax under setting [1] of 95%.
For `O=C1NCCc2c1cnn2-c1cnnc(Cc2cc(F)cc(C(F)(F)F)c2)c1` [Example 17, 1-(6-(3-fluoro-5-(trifluoromethyl)benzyl)pyridazin-4-yl)-1,5,6,7-tetrahydro-4H-pyrazolo[4,3-c]pyridin-4-one], in that order: 1260 nM and 96%.
On to `O=C1NCCc2c1cnn2-c1cc(Oc2cc(F)cc(C(F)(F)F)c2)ccn1` [Example 18, 1-(4-(3-fluoro-5-(trifluoromethyl)phenoxy)pyridin-2-yl)-1,5,6,7-tetrahydro-4H-pyrazolo[4,3-c]pyridin-4-one], for which a half-maximal effect (EC50) was put at 79.4 nM. Further, the Emax under setting [1] came to 82%.
The molecule `O=C1NCCc2c1cnn2-c1ccnc(Cc2ccc(Cl)cc2)c1` [Example 19, 1-(2-(4-chlorobenzyl)pyridin-4-yl)-1,5,6,7-tetrahydro-4H-pyrazolo[4,3-c]pyridin-4-one] showed an Emax of 73% and an EC50 of 631 nM.
For `O=C1NCCc2c1cnn2-c1ccnc(Cc2cc(F)cc(Cl)c2)c1` [Example 20, 1-(2-(3-chloro-5-fluorobenzyl)pyridin-4-yl)-1,5,6,7-tetrahydro-4H-pyrazolo[4,3-c]pyridin-4-one], the EC50 was 158 nM. The Emax under setting [1] came out at 101%.
As for `O=C1NCCc2c1cnn2-c1ccnc(Cc2cc(F)cc(F)c2)c1` [Example 21, 1-(2-(3,5-difluorobenzyl)pyridin-4-yl)-1,5,6,7-tetrahydro-4H-pyrazolo[4,3-c]pyridin-4-one], the EC50 is 1260 nM. Besides, the Emax under setting [1] was 100%.
The molecule `O=C1NCCc2c1cnn2-c1ccnc(Cc2cccc(C(F)(F)F)c2)c1` [Example 22, 1-(2-(3-(trifluoromethyl)benzyl)pyridin-4-yl)-1,5,6,7-tetrahydro-4H-pyrazolo[4,3-c]pyridin-4-one] had an EC50 of 200 nM. This molecule showed an Emax under setting [1] of 91%.
In turn, `O=C1NCCc2c1cnn2-c1ccnc(Cc2ccc(F)c(C(F)(F)F)c2)c1` [Example 23, 1-(2-(4-fluoro-3-(trifluoromethyl)benzyl)pyridin-4-yl)-1,5,6,7-tetrahydro-4H-pyrazolo[4,3-c]pyridin-4-one] showed an EC50 of 158 nM. Under setting [1], this molecule showed an Emax of 90%.
The molecule `O=C1NCCc2c1cnn2-c1ccnc(Cc2cc(F)c(F)c(F)c2)c1` [Example 24, 1-(2-(3,4,5-trifluorobenzyl)pyridin-4-yl)-1,5,6,7-tetrahydro-4H-pyrazolo[4,3-c]pyridin-4-one] showed an EC50 of 316 nM. For the same molecule, under setting [1], the Emax was 95%.
Molecule `O=C1NCCc2c1cnn2-c1ccnc(Cc2ccc(F)c(Cl)c2)c1` [Example 25, 1-(2-(3-chloro-4-fluorobenzyl)pyridin-4-yl)-1,5,6,7-tetrahydro-4H-pyrazolo[4,3-c]pyridin-4-one] showed an EC50 of 158 nM. Besides, the maximal effect (Emax) under setting [1] was determined as 89%.
For the molecule `Cc1cc(F)cc(Cc2cc(-n3ncc4c3CCNC4=O)ccn2)c1` [Example 26, 1-(2-(3-fluoro-5-methylbenzyl)pyridin-4-yl)-1,5,6,7-tetrahydro-4H-pyrazolo[4,3-c]pyridin-4-one], the EC50 is 79.4 nM. This molecule yielded an Emax under setting [1] of 95%.
`O=C1NCCc2c1cnn2-c1ccnc(Cc2cc(Cl)cc(C(F)(F)F)c2)c1` [Example 27, 1-(2-(3-chloro-5-(trifluoromethyl)benzyl)pyridin-4-yl)-1,5,6,7-tetrahydro-4H-pyrazolo[4,3-c]pyridin-4-one] gave an EC50 of 79.4 nM. In addition, the Emax under setting [1] was determined as 90%.
The molecule `Cc1cc(Cc2cc(-n3ncc4c3CCNC4=O)ccn2)cc(C(F)(F)F)c1` [Example 28, 1-(2-(3-methyl-5-(trifluoromethyl)benzyl)pyridin-4-yl)-1,5,6,7-tetrahydro-4H-pyrazolo[4,3-c]pyridin-4-one] gave an EC50 of 100 nM. The Emax under setting [1] amounted to 88%.
Molecule `O=C1NCCc2c1cnn2-c1ccnc(Cc2cccc(C(F)(F)F)c2F)c1` [Example 29, 1-(2-(2-fluoro-3-(trifluoromethyl)benzyl)pyridin-4-yl)-1,5,6,7-tetrahydro-4H-pyrazolo[4,3-c]pyridin-4-one] had an EC50 of 2510 nM. The Emax under setting [1] turned out to be 57%.
For `O=C1NCCc2c1cnn2-c1ccnc(Cc2cc(C(F)(F)F)ccc2F)c1` [Example 30, 1-(2-(2-fluoro-5-(trifluoromethyl)benzyl)pyridin-4-yl)-1,5,6,7-tetrahydro-4H-pyrazolo[4,3-c]pyridin-4-one], the EC50 was 794 nM. Further, the maximal response (Emax) under setting [1] is 77%.
Turning to `O=C1NCCc2c1cnn2-c1ccnc(Cc2cc(Cl)cc(Cl)c2)c1` [Example 31, 1-(2-(3,5-dichlorobenzyl)pyridin-4-yl)-1,5,6,7-tetrahydro-4H-pyrazolo[4,3-c]pyridin-4-one], the EC50 was 126 nM. The molecule also gave an Emax under setting [1] of 95%.
In the same order, the values of `O=C1NCCc2c1cnn2-c1ccnc(Cc2ccc(C(F)(F)F)cc2)c1` [Example 32, 1-(2-(4-(trifluoromethyl)benzyl)pyridin-4-yl)-1,5,6,7-tetrahydro-4H-pyrazolo[4,3-c]pyridin-4-one] are 398 nM and 61%.
As to `N#Cc1cc(Cc2cc(-n3ncc4c3CCNC4=O)ccn2)cc(C(F)(F)F)c1` [Example 33, 3-((4-(4-oxo-4,5,6,7-tetrahydro-1H-pyrazolo[4,3-c]pyridin-1-yl)pyridin-2-yl)methyl)-5-(trifluoromethyl)benzonitrile], the EC50 was 3160 nM. Moreover, the Emax under setting [1] is 58%.
With `O=C1NCCc2c1cnn2-c1ccnc(Cc2cc(C(F)(F)F)cc(C(F)(F)F)c2)c1` [Example 34, 1-(2-(3,5-bis(trifluoromethyl)benzyl)pyridin-4-yl)-1,5,6,7-tetrahydro-4H-pyrazolo[4,3-c]pyridin-4-one], the EC50 is 1000 nM. Besides, under setting [1], the maximum response (Emax) came out at 54%.
`O=C(c1cc(F)cc(C(F)(F)F)c1)c1cc(-n2ncc3c2CCNC3=O)ccn1` [Example 35, 1-(2-(3-fluoro-5-(trifluoromethyl)benzoyl)pyridin-4-yl)-1,5,6,7-tetrahydro-4H-pyrazolo[4,3-c]pyridin-4-one] had an EC50 of 3160 nM. Under setting [1], this molecule displayed an Emax of 40%.
